According to US20030134880A1, “Novel cd23 inhibitors” (priority 2000, published 2003):
pIC50: −log10 of the molar value.

Biological target: T1, human recombinant collagenase (Homo sapiens, UniProt P03956)
T1 construct: made in house; host or cells: E. coli
T1 sequence (P03956 100-469): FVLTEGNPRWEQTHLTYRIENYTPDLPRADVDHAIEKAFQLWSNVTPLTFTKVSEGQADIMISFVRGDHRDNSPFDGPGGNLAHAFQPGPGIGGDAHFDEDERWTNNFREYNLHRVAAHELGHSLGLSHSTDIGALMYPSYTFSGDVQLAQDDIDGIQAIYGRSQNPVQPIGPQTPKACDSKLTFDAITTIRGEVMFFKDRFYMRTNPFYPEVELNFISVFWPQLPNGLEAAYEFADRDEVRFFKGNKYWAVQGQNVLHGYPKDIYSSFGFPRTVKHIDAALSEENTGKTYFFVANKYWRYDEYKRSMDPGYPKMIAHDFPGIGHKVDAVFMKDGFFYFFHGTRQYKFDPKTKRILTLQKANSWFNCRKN
Experiment: Collagenase inhibition assay
Format: biochemical
Conditions: acetylated 3H type 1 bovine collagen, 37° C., 18 h
Experimental: Procedure 2: The ability of test compounds to inhibit collagenase was investigated using the following procedure.
Collagenase Inhibition Assay:
The potency of compounds to act as inhibitors of collagenase was determined by the method of Cawston and Barrett (Anal. Biochem. 99, 340-345, 1979), hereby incorporated by reference, whereby a 1 mM solution of the inhibitor being tested or dilutions thereof, was incubated at 37° C. for 18 h with collagen and human recombinant collagenase, from synovial fibroblasts cloned, expressed and purified from E. Coli, (buffered with 150 mM Tris, pH 7.6. containing 15 mM calcium chloride, 0.05% Brij 35.200 mM sodium chloride and 0.02% sodium azide). The collagen was acetylated ^3H type 1 bovine collagen prepared by the method of Cawston and Murphy (methods in Enzymology 80. 711,1981) The samples were centrifuged to sediment undigested collagen and an aliquot of the radioactive supernatant removed for assay on a scintillation counter as a measure of hydrolysis. The collagenase activity in the presence of 1 mM inhibitor, or dilution thereof, was compared to activity in a control devoid of inhibitor and the results reported as that concentration effecting 50% of the collagenase (IC50).

pIC50 | SMILES
≥ 5.00 | O=C(NO)C(c1ccccc1)N(Cc1cccnc1)S(=O)(=O)Cc1ccc2sccc2c1 (racemic) [Example 2, (R,S)-2-[(Benzo[b]thiophen-5-ylmethanesulfonyl)(pyridin-3-ylmethyl)-amino]-N-hydroxy-2-phenylacetamide]
≥ 5.00 | COCCOCCN([C@@H](C(=O)NO)c1ccccc1)S(=O)(=O)Cc1ccc2sccc2c1 [Example 1, (R)-2-{(Benzo[b]thiophen-5-ylmethanesulfonyl)[2-(2-methoxyethoxy)-ethyl]amino}-N-hydroxy-2-phenylacetamide]
≥ 5.00 | CC(C)C[C@H](C(=O)NO)N(Cc1cccnc1)S(=O)(=O)Cc1ccc2sccc2c1 [Example 8]
≥ 5.00 | O=C(NO)[C@@H](C1CCCCC1)N(Cc1ccco1)S(=O)(=O)Cc1ccc2sccc2c1 [Example 14, (R)-2-[(Benzo[b]thiophen-5-ylmethanesulfonyl)(furan-2-ylmethyl)-amino]-2-cyclohexyl-N-hydroxy-acetamide]
